Experimental findings from ChEMBL document CHEMBL1201862, “PubChem BioAssay data set” (2004) are described below.

Among the test systems are A498; ACHN; BT-549; CCRF-CEM; COLO 205; EKVX; HCT-15; HOP-92; K562; M14; NCI-H522; OVCAR-3; OVCAR-5; OVCAR-8; SF-295; SN12C; UACC-257; UO-31; RXF 393.
Holding throughout (assay): DTP human tumour cell line panel, 48 h

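Test compounds were applied to cells in 96-well plates for 48 hours at 5 doses. Here, GI50 denotes the concentration required for 50% inhibition of growth.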 The source made the active and inactive calls. Cut-off read from the data, not from the text of the source: active = GI50 up to about 1.1 µM and inactive = higher. Some results are limits rather than exact numbers.

One may read the GI50 as the concentration that inhibits growth by half. On to `CC(C)(C)N(Cc1ccc2c(c1)OCO2)C(=O)/C=C\Sc1ccccc1`, for which the GI50 in the experiment on A498 was 71 µM (inactive); with ACHN it was > 100 µM (inactive); in the experiment on BT-549 it was 42.6 µM (inactive); in the experiment on CCRF-CEM, 43.5 µM (inactive); with COLO 205 it was 45.1 µM (inactive); in the experiment on EKVX, 60.8 µM (inactive). The concentration for 50% growth inhibition (GI50) is 63.8 µM with HCT-15; 14.2 µM (inactive) in the experiment with HOP-92; 42.9 µM (inactive) with K562; 77.1 µM (inactive) in the experiment with M14; 6.98 µM (inactive) with NCI-H522; > 100 µM (inactive) in the experiment with OVCAR-3. For the same compound, the GI50 is > 100 µM (inactive) with OVCAR-5; > 100 µM (inactive) in the experiment with OVCAR-8; > 100 µM (inactive) in the experiment with SF-295; > 100 µM (inactive) in the experiment on SN12C; 71.1 µM (inactive) in the experiment on UACC-257; 43 µM (inactive) in the experiment with UO-31.

Regarding `O=c1[nH]c2ccccc2c(=O)n1/N=C/c1ccc(O)cc1`, the GI50 was > 100 µM (inactive) in the experiment on A498; > 100 µM (inactive) in the experiment with ACHN; 64.3 µM (inactive) in the experiment with BT-549; 66.4 µM (inactive) with CCRF-CEM; > 100 µM (inactive) in the experiment on COLO 205; > 100 µM (inactive) in the experiment on EKVX. In addition, the GI50 is over 100 µM in the experiment on HCT-15; 26.1 µM (inactive) in the experiment on HOP-92; > 100 µM (inactive) in the experiment on K562; > 100 µM (inactive) with M14; > 100 µM (inactive) in the experiment with OVCAR-3; > 100 µM (inactive) in the experiment on OVCAR-5. Besides, the GI50 in the experiment on OVCAR-8 is 48.2 µM (inactive); in the experiment with SF-295 it was 50.7 µM (inactive); in the experiment with SN12C it was 55.2 µM (inactive); with UACC-257, > 100 µM (inactive); in the experiment on UO-31 it was > 100 µM (inactive).

Regarding `CC1C(=O)C23OC[C@@]1(C)C1(O)CC[C@@H](C)[C@]21CC3=O` (stereo not given in full), the GI50 in the experiment on ACHN was > 100 µM (inactive); with BT-549, > 100 µM (inactive); in the experiment on CCRF-CEM it was > 100 µM (inactive); with COLO 205 it was > 100 µM (inactive); in the experiment with EKVX, > 100 µM (inactive); with HCT-15, over 100 µM. The GI50 in the experiment with K562, with M14, with NCI-H522, with OVCAR-3, in the experiment on OVCAR-5 and in the experiment on OVCAR-8 was > 100 µM (inactive) each time. Besides, the GI50 in the experiment with RXF 393, in the experiment with SF-295, with SN12C, in the experiment on UACC-257 and with UO-31 was > 100 µM (inactive) each time.

Turning to `CC[C@@]1(C[C@H]2C[C@@]3(C(=O)OC)c4[nH]c5ccccc5c4CCN3C2=O)COC2(CCCCC2)O1`, the GI50 is 30.9 µM (inactive) with ACHN; 47.9 µM (inactive) in the experiment with BT-549; 34.4 µM (inactive) in the experiment on COLO 205; 61.9 µM (inactive) in the experiment with EKVX; 33.3 µM in the experiment with HCT-15; 23.6 µM (inactive) in the experiment with K562. For the same compound, the GI50 with M14 is 37.8 µM (inactive); with NCI-H522 it was 37.1 µM (inactive); in the experiment on OVCAR-3 it was 51.2 µM (inactive); in the experiment with OVCAR-5 it was 55.8 µM (inactive); in the experiment on OVCAR-8 it was 43.3 µM (inactive); with RXF 393, 19.5 µM (inactive). The GI50 in the experiment with SF-295 is 33.4 µM (inactive); with SN12C, 45.7 µM (inactive); with UACC-257, 20 µM (inactive); in the experiment on UO-31 it was 18.1 µM (inactive).

For the compound `Cc1nc2ccc(/N=N/N(C)C)cc2[nH]1`, the GI50 in the experiment with A498 is > 100 µM (inactive); with ACHN, > 100 µM (inactive); with BT-549 it was 86.5 µM (inactive); with CCRF-CEM it was 98.9 µM (inactive); in the experiment on COLO 205, > 100 µM (inactive); in the experiment on EKVX it was > 100 µM (inactive). Besides, the GI50 in the experiment on HCT-15 is over 100 µM; in the experiment on M14, > 100 µM (inactive); in the experiment on NCI-H522, > 100 µM (inactive); in the experiment on OVCAR-3, > 100 µM (inactive); in the experiment on OVCAR-5 it was > 100 µM (inactive); with OVCAR-8, > 100 µM (inactive). The GI50 in the experiment with RXF 393, with SF-295, in the experiment on SN12C, with UACC-257 and in the experiment with UO-31 was > 100 µM (inactive) throughout.

In the case of `CC(C)(C)OC(=O)N/N=C(/N)c1ccccc1`, the GI50 was > 100 µM (inactive) in the experiment on ACHN; > 100 µM (inactive) in the experiment on BT-549; > 100 µM (inactive) in the experiment with CCRF-CEM; > 100 µM (inactive) with COLO 205; > 100 µM (inactive) in the experiment with EKVX; over 100 µM with HCT-15. Also, the GI50 with K562, in the experiment on M14, with NCI-H522, in the experiment with OVCAR-3, with OVCAR-5 and in the experiment with OVCAR-8 was > 100 µM (inactive) throughout. Further, the GI50 with RXF 393, in the experiment on SF-295, with SN12C, in the experiment on UACC-257 and in the experiment with UO-31 was > 100 µM (inactive) throughout.

As for `COc1ccccc1/C=N/Nc1nnc2c3ccccc3c3ncccc3c2n1`, the GI50 is 57 µM (inactive) in the experiment on ACHN; 41.7 µM (inactive) in the experiment on BT-549; 17.6 µM (inactive) in the experiment with CCRF-CEM; > 100 µM (inactive) in the experiment on COLO 205; 43.1 µM (inactive) in the experiment on EKVX; over 100 µM in the experiment with HCT-15. The GI50 is 14.6 µM (inactive) in the experiment with HOP-92; 70.8 µM (inactive) in the experiment with K562; 50.5 µM (inactive) in the experiment on M14; 70.6 µM (inactive) with NCI-H522; 47.2 µM (inactive) in the experiment with OVCAR-3; 79.4 µM (inactive) in the experiment on OVCAR-5. Further, the GI50 in the experiment with OVCAR-8 is 30 µM (inactive); in the experiment with RXF 393, 18.1 µM (inactive); in the experiment on SF-295 it was 6.14 µM (inactive); in the experiment on SN12C, 87.5 µM (inactive); in the experiment on UACC-257, > 100 µM (inactive); in the experiment with UO-31, > 100 µM (inactive).

With `O=C(/C=C/C=C/c1ccccc1)c1ccc2c(c1)CCCC2`, the GI50 is 38 µM (inactive) in the experiment on A498; 70.8 µM (inactive) in the experiment on ACHN; 26 µM (inactive) in the experiment on BT-549; 27.8 µM (inactive) in the experiment with CCRF-CEM; 40.4 µM (inactive) in the experiment with COLO 205; 36.5 µM (inactive) with EKVX. For the same compound, the GI50 in the experiment on HCT-15 was 36 µM; in the experiment on HOP-92, 30 µM (inactive); with K562, 30.9 µM (inactive); with M14, 94.2 µM (inactive); in the experiment on NCI-H522, 13.4 µM (inactive); in the experiment with OVCAR-3, 35.6 µM (inactive). For the same compound, the GI50 in the experiment on OVCAR-5 was > 100 µM (inactive); in the experiment with OVCAR-8 it was 33.1 µM (inactive); with SF-295, 58.3 µM (inactive); in the experiment with SN12C it was 32.5 µM (inactive); with UACC-257, 31.1 µM (inactive); with UO-31, 61 µM (inactive).

For `O=C(/N=N/c1cccc(Cl)c1)NNc1cccc(Cl)c1`, the GI50 in the experiment on A498 was 17.7 µM (inactive); in the experiment with ACHN, 9.25 µM (inactive); with BT-549 it was > 10 µM (inactive); in the experiment with CCRF-CEM it was 18.2 µM (inactive); with HCT-15 it was 17.6 µM; with K562, 10.6 µM (inactive). Further, the GI50 in the experiment on M14 is 14.4 µM (inactive); in the experiment on NCI-H522, 21.9 µM (inactive); in the experiment on OVCAR-3, 15 µM (inactive); with OVCAR-5 it was 15.8 µM (inactive); in the experiment on OVCAR-8, 17.3 µM (inactive); in the experiment on SN12C it was 11.7 µM (inactive). In addition, the figures for the GI50 with UACC-257 and in the experiment on UO-31 were 19.1 µM (inactive) and 8.49 µM (inactive), respectively.

As to `CNc1ccc(C)cc1S(=O)(=O)c1ccccc1[N+](=O)[O-]`, the GI50 in the experiment on A498 is 62.5 µM (inactive); in the experiment on ACHN, 30.8 µM (inactive); in the experiment with BT-549, 46.6 µM (inactive); in the experiment on CCRF-CEM, 21.4 µM (inactive); in the experiment on COLO 205, 65.6 µM (inactive); in the experiment on EKVX it was 51.8 µM (inactive). Moreover, the 50% growth inhibitory concentration (GI50) is 41.3 µM with HCT-15; 26.7 µM (inactive) with K562; 40.6 µM (inactive) with M14; 31.8 µM (inactive) with NCI-H522; 43.2 µM (inactive) in the experiment on OVCAR-3; > 100 µM (inactive) in the experiment with OVCAR-5. Further, the GI50 in the experiment on OVCAR-8 was 78 µM (inactive); in the experiment with RXF 393, > 100 µM (inactive); with SF-295 it was 42.1 µM (inactive); with SN12C it was 86.7 µM (inactive); in the experiment with UO-31 it was 52.5 µM (inactive).

For `O=C(Nc1ccccc1)O/N=C(/CBr)c1ccccc1`, the GI50 in the experiment on A498 was 24 µM (inactive); in the experiment on ACHN, 17.1 µM (inactive); with CCRF-CEM, 3.52 µM (inactive); with COLO 205, 15.7 µM (inactive); in the experiment on EKVX it was 17.1 µM (inactive); with HCT-15 it was 4.04 µM. Further, the GI50 in the experiment on HOP-92 was 16.1 µM (inactive); in the experiment with K562 it was 4.12 µM (inactive); in the experiment with M14, 6.79 µM (inactive); in the experiment with NCI-H522, 8.85 µM (inactive); in the experiment with OVCAR-3, 17.7 µM (inactive); in the experiment with OVCAR-5, 18.1 µM (inactive). Besides, the GI50 was 14.6 µM (inactive) in the experiment with OVCAR-8; 31.9 µM (inactive) in the experiment on RXF 393; 26 µM (inactive) with SF-295; 8.22 µM (inactive) in the experiment with SN12C; 17.8 µM (inactive) in the experiment on UACC-257; 16.1 µM (inactive) in the experiment on UO-31.

In the case of `COc1ccc(O[C@H](COCc2ccccc2)C[C@@H]2COC(C)(C)O2)cc1`, the GI50 in the experiment on A498, in the experiment with ACHN, in the experiment on BT-549, with CCRF-CEM, in the experiment with COLO 205 and in the experiment with EKVX was > 100 µM (inactive) each time. Besides, the GI50 in the experiment on HCT-15 is over 100 µM; with K562 it was > 100 µM (inactive); in the experiment on M14, > 100 µM (inactive); in the experiment on NCI-H522, > 100 µM (inactive); in the experiment with OVCAR-3 it was > 100 µM (inactive); in the experiment on OVCAR-5 it was > 100 µM (inactive). In addition, the GI50 in the experiment with OVCAR-8, in the experiment on RXF 393, in the experiment on SF-295, in the experiment on SN12C, with UACC-257 and with UO-31 was > 100 µM (inactive) in each case.
